From ChEMBL document CHEMBL1125640

Assay: Hill coefficient value of the compound

SMILES | Hill coefficient
COC(=O)[C@@H]1[C@@H](OC(=O)c2ccccc2)CC2CC[C@H]1N2C | 0.95
COC(=O)[C@@H]1[C@H]2CCC(C[C@H]1OC(=O)c1ccccc1)N2C | 1.19
COC(=O)[C@H]1[C@@H](OC(=O)c2ccccc2)CC2CC[C@H]1N2C | 2.6
COC(=O)[C@H]1[C@H]2CCC(C[C@H]1OC(=O)c1ccccc1)N2C | 1.3
COC(=O)[C@H]1[C@@H](OC(=O)c2ccccc2)C[C@@H]2CC[C@H]1N2C (stereo in doubt; 1) | 0.91
COC(=O)[C@H]1[C@@H](OC(=O)c2ccccc2)C[C@@H]2CC[C@H]1N2C (stereo in doubt; 2) | 0.96
COC(=O)C1C2CC[C@H](C[C@H]1OC(=O)c1ccccc1)N2C (stereo in doubt; 3) | 2.81
COC(=O)C1C2CC[C@H](C[C@H]1OC(=O)c1ccccc1)N2C (stereo in doubt; 4) | 0.92
